Values of other authors in patent US11213557B2, “Lactobacillus plantarum CCFM1019, fermented foods thereof, and application thereof in preparation of medicine for promoting excretion of plasticizers and metabolites thereof from body” (priority 2018, dated 2022).

[1] = human body, 24 h after DEHP enters the body

**Q.** With CCCCC(CC)COC(=O)c1ccccc1C(=O)OCC(CC)CCCC (centres unmarked) [DEHP, bis(2-ethylhexyl) phthalate] as the compound, how does the Half-life (DEHP stored in adipose tissue) read?
**A.** Its Half-life is 156 h.

**Q.** What about the “Absorption and distribution period” value (human body) of the same compound?
**A.** Its value is 4 to 8 h.

**Q.** And the “Time within which most of the DEHP is completely metabolized” value (human body)?
**A.** Its value is at most 24 h.

**Q.** And the “DEHP converted into five secondary metabolites and excreted in urine” value [1]?
**A.** The value was “about 67%”.

**Q.** What about the “DEHP directly excreted in urine” value [1] of the same compound?
**A.** Its value is “less than 10%”.
